Laboratory results from US7790171B1, “Antiviral peptides obtained from the tryptophan-rich hydrophobic cluster of the HIV-1 reverse transcriptase” (priority 2000, dated 2010).
Where no end group is shown, it is not given here.

Key:
[1] = system: CEM cells; assay: Toxicity in CEM cells; format: cell-based, human
[2] = system: HIV-1 BRU; assay: RT activity assay of viral production in HIV-1 BRU-infected CEM cells; format: cell-based
Procedure: (§1) FIG. 1: Effect of different concentrations of MPG/p7 (SEQ ID NO:1) on HIV-1 and HIV-2 in CEM cell cultures. CEM cells exposed to 100 μl of viral suspensions containing 1000×50% tissue culture infective dose (TCID50)/m1 of HIV-1 BRU (left panels) or HIV-2 ROD (right panels). a, HIV-infected cells were cultured in medium alone (white diamonds) or medium supplemented with MPG/p7 at 10^−7 M (black circles), 10^−8 M, (black up triangles), 10^−9 M (black diamonds), and 10^−10 M (black squares). b, As controls, HIV-infected cells were treated with either azidothymidine (AZT: 10^−5 M) (white squares) or peptide MPG/p237 (SEQ ID NO:5) at 10^−6 M (black down triangles). Viral production was monitored by measuring RT activity twice a week post infection. Culture supernatants from virus-free CEM were tested as a control (white circles, FIG. 1b).
(§2) RI activity assay. CEM cells were incubated for 30 mm at 4° C. with 100 μl of stock HIV preparation corresponding to 1000×50% tissue culture infective dose (TCID50)/ml, then cells were washed five times and cultured at 5×10^5 cell/ml in 24-well microplates in the presence or absence of MPG/p7 (at 10^−8 and 10^−7 M) or AZT (AZT was purchased from Boehringer Mannheim, Germany) additive. Viral production was monitored twice a week by measuring reverse transcriptase activity in 1 ml of cell-free supernatant as previously described (39).

[3] = system: HIV-2 ROD; assay: RT activity assay of viral production in HIV-2 ROD-infected CEM cells; format: cell-based
Procedure: as §1, §2

[4] = system: HIV-1 BRU, RF, SF2, NDK, ELI (clades B and D); assay: β-gal activity assay in MAGIC-5 cells, HIV-1 isolates; format: cell-based; conditions: MAGIC5 cells, β-gal activity day 3, X4 and R5/X4 strains
Procedure: (§3) FIG. 2: Effect of MPG/p7 (SEQ ID NO:1) on replication of different subtypes of HIV-1 and HIV-2 studied using MAGIC5 cells. MAGIC-5 cells were incubated with 50 μl of stock HIV preparation corresponding to 1000×TCID50/ml. a, HIV-1 BRU; b, HIV-1 RF; c, HIV-1 SF2 (FIG. 2.A); d, HIV-1 NDK; e, HIV-1 ELI; f, HIV-2 ROD; g, HIV-2 EHO (FIG. 2.B) in medium alone (lane 2), medium supplemented with AZT (10^−5 M) (lane 3), MPG/p7 at 10^−7 and 10^−8 M (lane 4 and 5 respectively), or MPG/p237 (SEQ ID NO:5) at 10^−6 M (lane 6) additive. After 3 days in culture, 13-gal activity was evaluated in cell lysates by measuring absorbance at 410 nm. β-gal activity in uninfected MAGIC5 cells was measured as control (lane 1). […] The calculated values represent means of duplicate. […]
(§4) β-gal activity assay. […] After 3 days in culture, cells were lysed and β-gal activity was determined by incubating 200 μl of total cellular extracts for 1 hat 37° C. in 1.5 ml buffer containing 80 mM NA2HPO4, 10 mM MgCl2, 1 mM 2 ME and 6 mM o-nitrophenyl β-D-galactopyranoside (ONPG). β-gal activity was evaluated by measuring absorbance at 410 nm.
(§5) The efficiency of MPG/p7 monitored using the previously described MAGIC5 transfectant cells that express surface CD4, CXCR4 and CCR5 receptors and contain a reporter gene under control of an HIV-1 promoter that can be induced upon infection of the cells. […]

[5] = system: HIV-2 ROD, EHO (clades A and B); assay: β-gal activity assay in MAGIC-5 cells, HIV-2 isolates; format: cell-based; conditions: MAGIC5 cells, β-gal activity day 3
Procedure: as §3, §4, §5

[6] = system: HIV-1 RTMF, HIV-1 RTMC, HIV-1 74V, HIV-1 N119 and HIV-1 RTMDR1; assay: β-gal activity assay in MAGIC-5 cells, anti-RT drug resistant HIV-1 strains; format: cell-based; conditions: β-gal activity day 3
Procedure: (§6) FIG. 3: Effect of MPG/p7 (SEQ ID NO:1) on replication of reference escape variant viruses. MAGIC-5 cells were incubated with 50 μl of stock HIV preparation corresponding to 1000×TCID50/ml of a, HIV-1 BRU; b, HIV-1 RTMF; c, HIV-1 RTMC; d, HIV-1 74V (FIG. 3.A); e, HIV-1 N119; f, HIV-1 RTMDR1 (FIG. 3.B), in medium alone (lane 2) or medium supplemented with AZT at 10^−5 M, 10^−6 M, 10^−7 M, 10^−8 M, 10^−9 M, and 10^−10 M (lanes 3 to 8 respectively), MPG/p7 at 10^−8 and 10^−7M (lanes 9 and 10), or MPG/p237 at 10^−6M (lane 11) additive. β-gal activity was evaluated on day 3 after virus exposure. β-gal activity in uninfected MAGIC5 cells was measured as control (lane 1). All results have been normalized (see legend of FIG. 2). The calculated values represent means of duplicate. Each figure is representative of at least three independent experiments.
β-gal activity assay. […] After 3 days in culture, cells were lysed and β-gal activity was determined by incubating 200 μl of total cellular extracts for 1 hat 37° C. in 1.5 ml buffer containing 80 mM NA2HPO4, 10 mM MgCl2, 1 mM 2 ME and 6 mM o-nitrophenyl β-D-galactopyranoside (ONPG). β-gal activity was evaluated by measuring absorbance at 410 nm. […]

[7] = system: HIV-1 RTMC; assay: β-gal activity assay in MAGIC-5 cells, HIV-1 RTMC; format: cell-based
Procedure: as §6, §4

[8] = system: HIV-1 RTMDR1; assay: β-gal activity assay in MAGIC-5 cells, HIV-1 RTMDR1; format: cell-based; conditions: FIG. 3f
Procedure: as §6, §4

[9] = target: HIV-1 RT dimerization (p66/p51) (Human immunodeficiency virus type 1 group M subtype B, UniProt P03366); conditions: cited from earlier work
[10] = system: HIV-1 BRU; conditions: cited from earlier work

## KETWETWWTE [p7, KETWETWWTE]
[1]
  concentrations without any toxicity in CEM cells: below 10^−5 M

## MPG/p7: non-covalent complex of peptide p7 (SEQ ID NO:1) with carrier peptide MPG (SEQ ID NO:2) (chain 1 KETWETWWTE; chain 2 GALFLGFLGAAGSTMGAWSQPKSKRKV; also: non-covalent complex of p7 with carrier MPG)
[2]; 10^−9 M, RT activity at the end of culture (day 17), CEM cells
  effect on HIV-1BRU replication at 10^−9 M: very slow virus propagation
[2]; 10^−10 M of MPG/p7, CEM cells
  delay in HIV-1 replication: 3 days
[2]; HIV-1 BRU-infected cultured CEM cells
  concentration that abolishes the production of viral particles: 10^−8 M
[2]; RT activity in cell free supernatant, 17 days of incubation, CEM cells
  concentrations that totally inhibit HIV-1BRU replication: above 10^−8 M
[3]; 10^−9 M of MPG/p7, CEM cells
  delay in HIV-2 replication: 3 days
[3]; RT activity in supernatant, CEM cells
  concentrations that strongly delay HIV-2ROD propagation: above 10^−7 M
[4]
  concentration at which all HIV-1 strains tested were susceptible: 10^−8 M
[5]
  concentration at which all HIV-2 strains tested were susceptible: 10^−8 M
[6]
  sensitivity of escape mutant viruses to treatment: sensitive
[7]; FIG. 3c
  concentration required to inhibit HIV-1 RTMC relative to other viruses: higher than that required to block the other viruses
[7]; data not shown
  concentration required to completely inhibit HIV-1 RTMC: 10^−6 M
[8]
  concentration required to inhibit HIV-1 RTMDR1 relative to other viruses: higher than that required to block the other viruses
[9]
  inhibition of HIV-1BRU RT dimerization in vitro (previously shown): inhibit
[10]
  inhibition of HIV-1BRU replication in CEM cell culture (previously shown): inhibit
